Consider 7 compounds from patent US5166374A, “Bile acid derivatives, processes for the preparation thereof and pharmaceutical compositions containing them” (Giuliani S.p.A., priority 1989, dated 1992).

≈ marks a conversion by molar mass, not a printed value. Entries after “also recorded” stand apart in the source; their conditions may differ. Where two headings read alike, the source gives them in different places.

Data set [1] in a line: critical micellar concentration (CMC), detergency. Type of data set: physicochemical. On the procedure:
-critical micellar concentration (CMC) or "detergency",
(§1) were evaluated according to conventional methods. Critical micellar concentration.
comparison with UDCA, GUDCA and TUDCA

Data set [2] in a line: lipophilicity (K' from retention times on C18 HPLC). Type of data set: physicochemical. The note with it: for rK' C-18 (relative values): Table III. The text has this:
K' = calculated from retention times (t) on C18 HPLC according to
where to = time of unretained solvent, under the following

The nature of another data set: solubility in water. It counts as physicochemical. The note with it: for solubility: water.
The next data set in a line: acidity constant (pKa). It counts as physicochemical. The procedure:
as §1

Data set [3] can be described thus: critical micellar pH (CMpH). Type of data set: physicochemical. On the procedure: as §1
A short description of data set [4]: liver uptake, biliary secretion and metabolism after intravenous administration. Type of data set: in vivo.
Data set [5] in a line: intestinal absorption, biliary recovery and metabolism after intraduodenal administration. It counts as in vivo.
For data set [6], the system named is bile flow and biliary secretion. The experiment in a line: effect on bile flow and biliary lipid secretion when administered i.v. to rat. It counts as in vivo. Particulars: for SMAB (mean maximum biliary secretion) / SMFL (mean maximum biliary lipid secretion) / SMVo (mean maximum bile flow) / SMxol (mean maximum biliary lipid secretion): rat, i.v., Table II. The text has this: Effect of 24-ISOP on bile flow and biliary
SVo = mean maximum bile flow.
SM = mean maximum biliary lipid secretion.

For another data set, the system named is bile flow. The experiment in a line: choleretic effect after i.v. or i.d. administration. Type of data set: in vivo.
[7] abbreviates: Table I, calculated from retention times on C18 HPLC, CH3OH/KH2PO4 0.01 M 130/70 v/v, pH = 7, read-out: K' (converted).

As a reminder, the solubility is how much of the substance goes into solution per volume. The pKa is the negative logarithm of the acid dissociation constant. In turn, `C[C@H](CCC(=O)CCC(=O)O)[C@H]1CC[C@H]2[C@@H]3[C@@H](O)C[C@@H]4C[C@H](O)CC[C@]4(C)[C@H]3CC[C@]12C` [Example 24-ISOP, 3α, 7β-dihydroxy-24-oxo-5β-cholan-27-oic acid] showed a CMC in data set [1] (Table I) of 9 mM. For the same compound, in data set [2] (c18 hplc, ch3oh/kh2po4, pH 7), the chromatographic logD is 0.326. The same compound showed a solubility in “solubility in water” (Solubility) of 20 µM (≈ 8.97 µg/mL). The same compound showed a pKa in the data set “acidity constant (pKa)” (pKa value) of 4.2. Besides, the “critical micellar pH (in words)” value in data set [3] is “low critical micellar pH; also recorded: soluble when present in micellar form at a pH lower than UDCA (low CMpH)”. In addition, the disappearance from bile entry in data set [4] (in vivo) is “disappears from bile with a kinetic similar to conjugate forms of UDCA and faster than UDCA”. The “kinetic of the biliary secretion” value in data set [4] (in vivo, iv) was “very fast in comparison with UDCA and more similar to tauroursodeoxycholic acid”. In data set [4] (intravenous), the metabolites / conjugation entry is “no significant metabolites are present” and the recovery in bile result is reported as “completely recovered in bile with a rapid kinetic”. In addition, the metabolites entry in data set [5] (in vivo) was “no major metabolites are present”. Further, the recovery in bile result in data set [5] (intraduodenal) was “significantly higher than that of glycoursodeoxycholic and similar to UDCA and TUDCA”. In [6] (intravenous), the “effect on bile flow (in words)” value was “great effect on bile flow, higher than that of UDCA and its conjugated forms”; the “transport and secretion of cholesterol and phospholipids (in words)” value was “no significative differences”. In [6], the “SMAB (mean maximum biliary secretion)” value is 2.62 µmol/min/kg, the “SMFL (mean maximum biliary lipid secretion)” value (“SMFL” below) came to 0.21 µmol/min/kg, the “SMVo (mean maximum bile flow)” value was 5.22 mL/h/kg and the “SMxol (mean maximum biliary lipid secretion)” value (from here on “SMxol”) was 0.020 µmol/min/kg. In the data set on bile flow, the choleretic effect result was “high choleretic effect, higher than that of UDCA”.
For `C[C@H](CCC(=O)CCC(=O)O)[C@H]1CC[C@H]2[C@@H]3[C@@H](O)C[C@@H]4C[C@H](O)CC[C@]4(C)[C@H]3C[C@H](O)[C@]12C` [Example 24-PUCA, 3α, 7β, 12α-Trihydroxy-24-oxo-5β-cholan-27-oic acid], in data set [1], the “CMC / detergency (in words)” value is “mild detergency”. Also, the CMC in data set [1] (Table III) stood at 28 mM. Besides, in data set [2], the “lipophilicity (in words)” value was “intermediate between UCA and UDCA”; the “rK' C-18 (relative values)” value was 0,20. In the data set “solubility in water”, the “solubility (in words)” value is recorded as “very soluble also in protonated form”; the “water solubility relative to UDCA and 24-PUDCA” value is listed as “about 100 times”. Also, the concentration in solution in “solubility in water” (water solubility) (solubility) came to 1800 µM (≈ 836 µg/mL). The “pKa (in words)” value in “acidity constant (pKa)” was “lower to than that of the natural analogues UCA and UDCA and similar to that of 24-PUDCA”. This compound returned a pKa in the data set “acidity constant (pKa)” (pKa) of 3.85. Moreover, in data set [3], the “critical micellar pH (in words)” value was “low CMpH value”.
Compound `C[C@H](CCC(=O)CCC(=O)O)[C@H]1CC[C@H]2[C@@H]3[C@@H](O)C[C@@H]4C[C@H](O)CC[C@]4(C)[C@H]3CC[C@]12C` [Example 24-PUDCA] had a CMC in data set [1] (Table III) of 9 mM. Moreover, the “rK' C-18 (relative values)” value in data set [2] is on record as 0,44. For the same compound, the concentration in solution in the data set “solubility in water” (water solubility) (solubility) was 13 µM (≈ 5.83 µg/mL). The compound further returned a pKa in the data set “acidity constant (pKa)” (pKa) of 3.9.
In [1] (Table I), `C[C@H](CCC(=O)NCC(=O)O)[C@H]1CC[C@H]2[C@@H]3[C@@H](O)C[C@@H]4C[C@H](O)CC[C@]4(C)[C@H]3CC[C@]12C` [GUDCA, glycoursodeoxycholic acid] displayed a CMC of 12 mM. In addition, the chromatographic logD in [2] (setting [7]) is 0.0253. Further, the “solubility (in words)” value in “solubility in water” is given as “low solubility at low pH”. Further, in the data set “solubility in water” (Table I, read-out: Solubility), the solubility is 3 µM (≈ 1.35 µg/mL). Moreover, in data set [6], the “SMAB (mean maximum biliary secretion)” value worked out at 2.10 µmol/min/kg, the “SMFL” value was found to be 0.39 µmol/min/kg, the “SMVo (mean maximum bile flow)” value came out at 2.4 mL/h/kg and the “SMxol” value was found to be 0.028 µmol/min/kg.
Compound `C[C@H](CCC(=O)NCCS(=O)(=O)O)[C@H]1CC[C@H]2[C@@H]3[C@@H](O)C[C@@H]4C[C@H](O)CC[C@]4(C)[C@H]3CC[C@]12C` [TUDCA, tauroursodeoxycholic acid] returned a CMC in data set [1] (Table I) of 8 mM. Besides, in [2] (setting [7]), the chromatographic logD is -0.00877. For the same compound, in data set [6], the “SMAB (mean maximum biliary secretion)” value stood at 3.40 µmol/min/kg, the “SMFL” value amounted to 0.18 µmol/min/kg, the “SMVo (mean maximum bile flow)” value is 2.16 mL/h/kg and the “SMxol” value is 0.014 µmol/min/kg.
The compound `C[C@H](CCC(=O)O)[C@H]1CC[C@H]2[C@@H]3[C@@H](O)C[C@@H]4C[C@H](O)CC[C@]4(C)[C@H]3C[C@H](O)[C@]12C` [UCA, ursocholic] had a CMC in data set [1] (Table III) of 60 mM.
Take `C[C@H](CCC(=O)O)[C@H]1CC[C@H]2[C@@H]3[C@@H](O)C[C@@H]4C[C@H](O)CC[C@]4(C)[C@H]3CC[C@]12C` [UDCA, ursodeoxycholic, reference compound]: the CMC in data set [1] (Table I) and in data set [1] (Table III) was 19 mM each time. Further, the chromatographic logD in data set [2] (setting [7]) was 0.563. Further, in [2], the “rK' C-18 (relative values)” value is reported as 0,4. For the same compound, the “solubility (in words)” value in the data set “solubility in water” is “low solubility at low pH”. In addition, the solubility in “solubility in water” (Table III, read-out: water solubility) is 19 µM (≈ 7.46 µg/mL); in “solubility in water” (Table I, read-out: Solubility), 9 µM (≈ 3.53 µg/mL). Moreover, the pKa in the data set “acidity constant (pKa)” (Acidity constant, read-out: pKa value) is 6; in the data set “acidity constant (pKa)” (Table I), 5.06; in the data set “acidity constant (pKa)” (Table III), 5. For the same compound, in data set [4] (in vivo, iv), the metabolites / conjugation result was “completely transformed into its conjugated form, tauroursodexycholic acid and to less extent into glycoursodeoxycholic acid”. The “SMAB (mean maximum biliary secretion)” value in [6] turned out to be 3.02 µmol/min/kg. In addition, the “SMFL” value in data set [6] came out at 0.227 µmol/min/kg. The “SMVo (mean maximum bile flow)” value in data set [6] came to 3.6 mL/h/kg. Further, the “SMxol” value in [6] turned out to be 0.022 µmol/min/kg.
